melting point	SMILES
203 to 205 °C	c1ccc2[nH]c(CN3CCN(c4nccs4)CC3)nc2c1
179 to 180 °C	O=C(NC1CC1)c1cccc(-c2ccc3c(c2)C(Oc2ccc(Cl)cc2Cl)CC3)c1 (stereo not given)
208 to 209 °C	COc1ccc(CNc2nnc(Cl)c3cc(Cl)c(Cl)cc23)cc1Cl
95.9 to 97.6 °C	O=C(Nc1cccnc1)N1CCC(=C2c3ccc(Cl)cc3C=Cc3cccnc32)CC1
20 °C	FC(F)(F)c1cc2ccccc2n1Cc1ccccc1
131 °C	Clc1ccc(C(c2ccccc2)c2cn[nH]c2)c(Cl)c1 (stereo not given)
134 to 139 °C	CCOC(=O)C1(Sc2ccccc2)Cc2ccc(N(C)C)cc2NC1=O (stereo not given)
181 to 182 °C	COc1cc(OC)cc(-c2nc[nH]c2-c2ccc(OC)c(O)c2)c1
197 to 200 °C	O=C1Nc2cccnc2N(C(=O)CN2CCN(CCO)CC2)c2ccccc21
168 °C	CC#CCOc1ccc(S(=O)C(C(=O)NO)c2ccccc2OC)cc1 (stereo not given)
68 °C	COc1ccc(C2NCCc3c2[nH]c2ccccc32)cc1F (stereo not given)
80 to 81 °C	CN(C)C(=O)CC1=C(n2nc(-c3c(-c4ccccc4)nn4ccccc34)ccc2=O)CCCC1
220 to 223 °C	NC(=O)c1cc2ccccc2cc1NC(=S)NC(=O)c1ccccc1
128 to 132 °C	Cc1cccc(-c2ncc(N)c(=O)n2CC(=O)NC(Cc2ccccc2)C(=O)C(F)(F)C(=O)NCC(=O)O)c1 (stereo not given)
101 to 102 °C	O=Cc1cc2sccc2c2ccccc12
138 to 139 °C	CCOC(=O)c1c(CN(CC)CC)nc2sc3c(c2c1-c1ccc(OC)c(OC)c1)CCCN3C(=O)OCc1ccccc1
157 to 158 °C	O=C1CC(c2ccccc2)CN1C(=O)c1ccc(Cl)cc1 (stereo not given)
72 to 73 °C	Cn1nc(-c2ncc(Cl)cc2F)cc1OCC(F)(F)F
232 to 233 °C	CC(=O)Nc1c(C(=O)c2cc(F)cc(F)c2)[nH]c2cc(Cl)ccc12
157 to 160 °C	Cn1cc(C(=O)NCc2ccc(Cl)cc2)c(=O)c2cc(CCCCO)oc21

melting point	SMILES
115 to 117 °C	CC1=C(C(=O)Nc2ccc(Cl)cc2)SCCS1
240 °C	CC(=O)Oc1ccc(-c2cnc(-c3ccccc3)[nH]c2=O)cc1OC(C)=O
100 to 102 °C	CCCCCCCCS(=O)(=O)Nc1ccccc1Oc1ccccc1C(=O)O
172 to 173 °C	Cc1cccc(-c2ccccc2)c1NC(=S)NC(=O)c1ccccc1
137 to 145 °C	C=CC[C@H](C(N)=O)[C@@H](CC(C)C)C(=O)NC1C(=O)N(C)c2ccccc2-c2ccccc21 (stereo not given in full)
296 °C	COc1ccc(-c2nc(C(=O)c3ccc(N)c(C(=O)O)c3)n3ccccc23)cc1
> 260 °C	O=C1c2ccccc2C(=O)c2sc(-c3ccc(Br)o3)nc21
149 to 151 °C	O=C(c1ccc(F)c(F)c1)N1CCC[C@H](c2nc(-c3ccccc3)no2)C1
209 to 211 °C	Nc1cc(Cl)nc(C(=O)NOCc2ccc(F)cc2)c1Cl
62 to 64 °C	FC(F)(F)c1cc(Br)c2cccc(Cl)c2n1
188 to 191 °C	O=C(NO)c1cc(Oc2ccc(C(F)(F)F)cc2Cl)ccc1O
127 °C	Cc1cc(C)cc(NC(=N)Nc2ccccc2C(F)(F)F)c1
201 to 203 °C	CCOCc1nc2c(N)nc3cc(OCc4ccccc4)ccc3c2n1CC(C)C
248 to 250 °C	COc1ccc(Cc2ccc3[nH]c(=S)[nH]c3c2)cc1OC
151 to 154 °C	COc1c(CS(C)(=O)=O)cnc2ccccc12
232 to 234 °C	CCCC(=O)c1cc(C(=O)O)c2cc(Cc3ccc(F)cc3)cnc2c1O
> 300 °C	N=c1nc(Nc2ccccc2)nc2[nH]c3ccccc3n12
175 to 177 °C	CC(C)(C)OC(=O)NCC1=CC(c2ccccc2)Cc2c1ccc(O)c2O (stereo not given)
214 to 216 °C	NC(=S)c1c(Cl)c(-c2cccnc2)n2c1CN(C(=O)Nc1ccc(F)cc1)CC2
70 to 71 °C	CCOC(=O)CCc1cn(-c2ccc(Cl)cn2)nc1C(C)C

The remaining lines, values behind:

SMILES	melting point
CCOC(=O)c1cn(CCCl)c2nc(-c3ccncc3)c(F)cc2c1=O	192 to 194 °C
CC(C)OC(=O)NC(C(=O)N1CCCC1C(=O)O)C(C)(C)SC(C)C (stereo not given)	128 to 130 °C
CCOC(=O)/C=C/c1cnn(C)c1	43 to 44 °C
Cc1ccc2cccc(OCc3c(Cl)ccc(S(=O)(=O)N4CCC[C@H]4C(=O)NCCCNC(=O)c4ccc(C#N)cc4)c3Cl)c2n1	78 to 80 °C
O=c1[nH]c2ccc(Cl)cc2n1C1CCNCC1	> 300 °C
CONC(=O)NC1CCC(=O)c2ccccc21 (stereo not given)	148 to 151 °C
N#Cc1cccc(S)c1	91 to 95 °C
CN1C(=O)N(C)C(=O)C(Cc2ccccc2)(Cc2ccccc2)C1=O	128 to 129 °C
Cc1ccc(N2C(=O)C(O)=C(C(=O)c3ccc(C(C)(C)C)cc3)C2c2ccc(OC(F)(F)F)cc2)nn1 (stereo not given)	262 to 265 °C
CCOC(=O)c1ccnc(OCc2nc(-c3ccco3)oc2C)c1	80 to 81 °C
CCC(Oc1cc(N)c(Cl)cc1C(=O)NCCN(CC)CC)C(C)=O (stereo not given)	75 to 78 °C
CC(C)c1nsc(N=C(Br)N(C)C)c1C#N	92 to 96 °C
CC(C)=NOCc1nc2c(N)nc3cccnc3c2n1CC(C)(C)O	198 to 200 °C
CC1(C)C(=O)Nc2cc3[nH]c(-c4cccs4)nc3cc21	332 to 336 °C
CCn1cc(C(=O)O)c(=O)c2cc(F)c(N3CCSC3)nc21	268 to 270 °C
CCOC(=O)Cc1cc(OC)c(OC(C)=O)c(C2(OC(C)=O)C(=O)c3ccccc3C2=O)c1	102 to 107 °C
CC12CCC(C1)C1(C)Oc3ccc(C(=O)COc4ccc(C(=O)O)c(O)c4)cc3C21C (stereo not given)	186 to 188 °C
CCC(Oc1ccccc1)c1nnc(NC(=O)N(C)CC(OC)OC)s1 (stereo not given)	84 to 85 °C
Cc1ccc(S(=O)(=O)OC(c2cccc(C(OS(=O)(=O)c3ccc(C)cc3)(C(F)(F)F)C(F)(F)F)c2)(C(F)(F)F)C(F)(F)F)cc1	131 °C
COc1cccc(OC)c1-c1cc(C(=O)NCC(=O)O)nn1-c1ccc(C(=O)N(C)CCCN(C)C)cc1C(C)C	160 °C
Cc1nc(CCc2nc3ccc(F)cc3c(=O)n2-c2cccnc2C)cs1	151 to 153 °C
COc1ccc(C(C)(C)c2cc(C(C)(C)C)cc(-n3nc4ccc(C(F)(F)F)cc4n3)c2O)cc1	140 °C
O=S(=O)(F)c1cc(Cl)c(Cl)cc1Cl	80 to 83 °C
CC1(C)Oc2cccnc2C2OC21 (stereo not given)	65 to 67 °C
COc1ccc(C(=O)Cc2c(Cl)cncc2Cl)c2cc(C(=O)N3CCN(C)CC3)oc12	160 to 161 °C
C#CCc1c(O)nc(C)nc1O	> 300 °C
CC1=C(C(=O)OC(C)(C)C)C(c2ccccc2[N+](=O)[O-])C(C(=O)OC(C)(C)C)=C(C)N1	159 to 161 °C
O=C1N[C@@H](C(=O)N2C[C@H](O)C[C@H]2C(=O)O)CCCCCC[C@@H]1CS	128 to 130 °C
CCOC(=O)C1=C(C)NC(C)=C(C(=O)OCC)C1c1nc(-c2ccc(OC)cc2)c(-c2ccc(OC)cc2)s1	177 to 178 °C
C#CC1(O)CCC2C3=C(CCC21C)c1ccc(OC)cc1CC3 (stereo not given)	133 to 137 °C

Source: a melting point compilation (Tetko et al.; mined from patent text by program, amines drawn as free bases though some values may be those of a salt)
